# Marks after values point to notes of the source that are not given here.
# Assays:
# [1] = system: skin melanocytes; assay: Chloasma model of guinea pig: pathomorphological observation of skin melanocytes; type: in vivo; design: Average gray level (melanocyte depth): scale not given here; conditions: 0.25% cream once a day, 30 days
# Source text: According to the body weight, they were randomly divided into the model control group (applied cream matrix), blank control group (applied cream matrix), CLY-1 treatment group (applied 0.25% CLY-1 cream on the skin), CLY-2 treatment group (0.25% CLY-2 cream on the skin), CLY-3 treatment group (0.25% CLY-3 cream on the skin), CLY-4 treatment group (0.25% CLY-4 cream on the skin), CLY-5 treatment group (0.25% CLY-5 cream on the skin) CLY-8 treatment group (0.25% CLY-8 cream on the skin), CLY-11 treatment group (0.25% CLY-11 cream on the skin), CLY-19 treatment group (0.25% CLY-19 cream on the skin), CLY-36 treatment group (0.25% CLY-36 cream on the skin), CLY-39 treatment group (0.25% CLY-39 cream on the skin), positive treatment group (0.25% arbutin cream on the skin), 6 in each group. In addition to the blank control group, all guinea pigs in the other groups were injected with 20 mg/ml progesterone injection (7.5 mg/kg) into the muscle at the root of the hind leg, once a day, for 30 consecutive days to establish the chloasma model. […] After modeling, the guinea pigs in the model control group, blank control group, each CLY series treatment group, and positive treatment group were treated with corresponding cream on the back for intervention, once a day, for 30 consecutive days.
# Took 1 piece of spare skin tissue from each of all guinea pigs, about 2 cm×1 cm, 10% paraformaldehyde fixation, pathological tissue detection, immunohistochemical staining, observation of melanocyte staining and number, and judgment of positive cells according to the literature: none, 0 point<15%, 0.5 points<30%, 1 point; >30%, 2 points. Observed 5 visual fields in each slice, found out the positive target with brown reaction in the cytoplasm of skin epidermis and accessory epithelial cells, and used BX50F4 Beihang pathological image analysis system for quantitative analysis to obtain the average area, the ratio of target area to statistical field area (areal density), the ratio of target number to statistical field area (number density), the average gray level, the average optical density and the integrated optical density of each guinea pig's 5 visual fields of melanin positive target.
# SPSS16.0 software was used for statistics. The measurement data were expressed by mean±standard deviation (x±s). The comparison between multiple groups was performed by one-way ANOVA, and the comparison between groups was performed by t-test. P<0.05 was statistically significant.
# [2] = system: mouse hair loss model; assay: Mouse hair loss (androgenic alopecia) model: hair length; type: in vivo, C57BL/6 mice; conditions: mouse AGA model; external 2% tincture twice a day
# Source text: (1) Preparation method of tincture of compounds CLY-1, CLY-2, CLY-3, CLY-4, CLY-8, CLY-11, CLY-19, CLY-36, and CLY-39: 60% ethanol was mixed with the above compounds to prepare a tincture of 2% concentration.
# (2) Positive treatment drug: 2% minoxidil tincture (produced by the Institute of Dermatology, Chinese Academy of Medical Sciences)
# The experimental mice were divided into the negative control group (external use of 60% ethanol), model group (external use of 60% ethanol), positive control group (external use of 2% minoxidil tincture), CLY-1 external treatment group (external use of 2% CLY-1 tincture), CLY-2 external treatment group (external use of 2% CLY-2 tincture), CLY-3 external treatment group (external use of 2% CLY-3 tincture), CLY-4 external treatment group (external use of 2% CLY-4 tincture), CLY-8 external treatment group (external use of 2% CLY-8 tincture) CLY-11 external treatment group (2% CLY-11 tincture), CLY-19 external treatment group (2% CLY-19 tincture), CLY-36 external treatment group (2% CLY-36 tincture), and CLY-39 external treatment group (2% CLY-39 tincture). There were 6 animals in each group, half male and half female. An area of 4 cm×5 cm from the back of experimental mice with hair removed was selected, and the hair removal area was painted yellow with 3% picric acid solution to determine the observation area of the hair removal experiment. In addition to the negative control group, mice in other groups were injected subcutaneously with testosterone propionate injection [8 ml/(kg·d)] at the back of the neck, once a day, for 60 consecutive days, to establish the model of androgenic alopecia (AGA). At the same time of modeling, the rats in the corresponding drug group were smeared with drugs on the observation area of the back at the rate of 1 ml/(piece·time), twice a day, with an interval of 2 hours. The normal control group and the model control group were smeared with the excipient (60% ethanol solution), 1 ml/(one time), twice a day, for 60 consecutive days.
# 10 hairs were extracted from the observation area on the back of each mouse every 15 days after administration, and the hair length was measured with a vernier caliper. After 60 days of administration, the skin of the experimental observation area was taken for routine tissue dehydration, paraffin embedding, HE staining, and light microscopy to observe the histopathological changes of mouse skin hair follicles and sebaceous glands. Semi-quantitative analysis was performed for each group. The grading criteria are as follows: the normal structure of dermal tissue cells, subcutaneous hair follicles, and sebaceous glands is marked as […]: no hyperplasia of dermal tissue is found, the lesions of hair follicles and sebaceous glands are limited, and no inflammation is found under the skin is marked as “+”: no obvious hyperplasia of dermal tissue is found, and the follicles are obviously cystic. No obvious hyperplasia of sebaceous glands is found, and no inflammation is found under the skin is marked as “+”: the dermal tissue has segmental hyperplasia, which is not obvious, A small number of hair follicles have cystic changes, and the sebaceous glands have mild hyperplasia and hypertrophy. There is no obvious inflammation under the skin, which is marked as “++”: the dermal tissue cells of the skin have different degrees of segmental hyperplasia, and some hair follicles have cystic changes, showing uneven size of hair follicles, and no cells around. The sebaceous glands have hyperplasia, and the nuclei in the proliferative glands are few. A few subcutaneous mild inflammatory hyperplasia is marked as “+++”.
SMILES,Area density of melanocytes [1],Area of melanocytes [1],Average gray level (melanocyte depth) [1],Average optical density (melanocyte depth) [1],Integrated optical density (melanocyte depth) [1],Number density of melanocytes [1],Number of melanocytes [1],15-day hair length [2],30-day hair length [2],45-day hair length [2],60-day hair length [2]
"CN1CCC[C@@H](N(C(=O)c2ccc(-n3nnc4cccnc43)cc2)c2ncccc2Cl)C1 [CLY-1, (R)-4-(3H-[1,2,3]triazolo[4,5-b]pyridin-3-yl)-N-(3-chloropyridin-2-yl)-N-(1-methylpiperidin-3-yl)benzamide]",0.005 ± 0.002,372.31 ± 58.32 um2,0.43 ± 0.07,11.23 ± 1.21,103.34 ± 9.71,1.91 ± 0.96,1.93 ± 0.55,0.653* cm,0.851* cm,0.858* cm,0.951* cm
"CCN1CCC[C@@H](N(C(=O)c2ccc(-n3nnc4cccnc43)cc2)c2ncccc2Cl)C1 [CLY-2, (R)-4-(3H-[1,2,3]triazolo[4,5-b]pyridin-3-yl)-N-(3-chloropyridin-2-yl)-N-(1-ethylpiperidin-3-yl)benzamide]",0.004 ± 0.002,366.26 ± 62.15 um2,0.41 ± 0.06,10.68 ± 1.18,106.96 ± 9.84,1.88 ± 1.34,1.75 ± 0.53,0.676* cm,0.865* cm,0.869* cm,0.962* cm
CNC1CCCC(N(C(=O)c2ccc(-n3nnc4cccnc43)cc2)c2ncccc2Cl)C1 (centres unmarked) [CLY-3],0.008 ± 0.003,436.32 ± 79.12 um2,0.52 ± 0.08,11.42 ± 1.32,95.36 ± 9.86,2.82 ± 1.25,2.13 ± 0.61,0.646* cm,0.843* cm,0.847* cm,0.946* cm
O=C(c1ccc(-n2nnc3cccnc32)cc1)N(c1ncccc1Cl)C1CCCC(O)C1 (centres unmarked) [CLY-4],0.009 ± 0.003,496.56 ± 86.23 um2,0.58 ± 0.09,11.61 ± 1.38,92.45 ± 9.36,2.95 ± 1.41,2.45 ± 0.67,0.641* cm,0.837* cm,0.841* cm,0.939* cm
COC1CCCC(N(C(=O)c2ccc(-n3nnc4cccnc43)cc2)c2ncccc2Cl)C1 (centres unmarked) [CLY-5],0.004 ± 0.001,345.31 ± 56.21 um2,0.40 ± 0.05,10.59 ± 1.13,107.06 ± 9.57,1.75 ± 1.29,1.43 ± 0.32,–,–,–,–
"O=C(c1ccc(-n2nnc3cccnc32)cc1)N(c1ncccc1Cl)[C@@H]1CCNC1 [CLY-8, (R)-4-(3H-[1,2,3]triazolo[4,5-b]pyridin-3-yl)-N-(3-chloropyridin-2-yl)-N-(pyrrolidin-3-yl)benzamide]",0.003 ± 0.001,341.26 ± 54.82 um2,0.39 ± 0.04,10.48 ± 1.11,103.15 ± 9.52,1.71 ± 1.26,1.36 ± 0.29,0.682 * cm,0.872* cm,0.886* cm,0.971* cm
NC1CCCC(N(C(=O)c2ccc(-n3nnc4cccnc43)cc2)c2ncccc2Cl)C1 (centres unmarked) [CLY-11],0.006 ± 0.002,417.53 ± 73.16 um2,0.46 ± 0.06,11.26 ± 1.22,101.38 ± 9.92,2.16 ± 1.38,1.98 ± 0.56,0.637* cm,0.831* cm,0.834* cm,0.932* cm
O=C(c1ccc(-c2ccccc2-c2nnn[nH]2)cc1)N(c1ncccc1Cl)[C@@H]1CCCNC1 [CLY-19],0.006 ± 0.003,405.62 ± 73.45 um2,0.45 ± 0.06,11.28 ± 1.24,102.65 ± 9.97,2.18 ± 1.35,1.95 ± 0.52,0.623* cm,0.826* cm,0.828* cm,0.915* cm
O=C(c1ccc(-c2ccccc2Cl)cc1)N(c1ncccc1Cl)[C@@H]1CCCNC1 [CLY-36],0.007 ± 0.004,495.32 ± 79.43 um2,0.47 ± 0.07,11.53 ± 1.22,97.62 ± 9.91,2.67 ± 1.38,1.98 ± 0.59,0.628* cm,0.824* cm,0.823* cm,0.919* cm
Nc1ccccc1-c1ccc(C(=O)N(c2ncccc2Cl)[C@@H]2CCCNC2)cc1 [CLY-39],0.006 ± 0.003,458.06 ± 76.32 um2,0.47 ± 0.07,11.06 ± 1.17,101.36 ± 9.72,2.03 ± 1.24,1.39 ± 0.32,0.665* cm,0.845* cm,0.867* cm,0.956* cm
"Nc1cc(N2CCCCC2)nc(N)[n+]1[O-] [Positive control group, minoxidil, reference compound]",–,–,–,–,–,–,–,0.591* cm,0.814* cm,0.825 cm,0.842* cm

# Source: patent US20240300945A1, “CLY SERIES COMPOUND, PREPARATION METHOD THEREFOR AND USE THEREOF IN PREPARATION OF DRUGS” (NANJING WELLBEST PHARMACEUTICAL CO., LTD, priority 2021, published 2024)
